The experiment has as its target T1, p38γ (Homo sapiens, UniProt P53778).
T1 construct: purchased Abcam ab125651
T1 sequence (P53778 1-367): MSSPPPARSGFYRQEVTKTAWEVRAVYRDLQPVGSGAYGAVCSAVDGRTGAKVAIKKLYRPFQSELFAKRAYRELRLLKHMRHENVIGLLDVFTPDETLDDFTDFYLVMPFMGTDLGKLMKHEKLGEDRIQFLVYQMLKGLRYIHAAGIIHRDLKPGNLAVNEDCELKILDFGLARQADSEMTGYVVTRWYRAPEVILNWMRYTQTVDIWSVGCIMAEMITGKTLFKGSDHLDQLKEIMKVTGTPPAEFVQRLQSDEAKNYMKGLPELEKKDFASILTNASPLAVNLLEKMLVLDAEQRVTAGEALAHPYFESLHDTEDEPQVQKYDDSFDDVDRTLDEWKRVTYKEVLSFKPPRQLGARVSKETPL
The experiment is described as follows: In vitro kinase assay. It is filed as biochemical. The method, then:
400 ng of recombinant p62 (Abcam, ab95320) and 200 ng of recombinant p38γ (Abcam, ab125651) were incubated in a kinase assay buffer [25 mM MOPS (pH 7.2), 12.5 mM beta-glycerol-phosphate, 25 mM MgCl2, 5 mM EGTA, 2 mM EDTA and 1 mM DTT] for 15 min on ice.

The structures appear in SMILES notation.

As for `O=C(O)CCc1cnc[nH]1` [imidazole propionate], the “p62 phosphorylation (T269 and S272) by p38γ” value (recombinant p38γ and p62, ATP 50 μM) is reported as “enhanced”. In addition, the p38γ autophosphorylation result (together with ATP) is listed as “induced”.

The record behind these values is patent US20190369122A1, “METABOLIC DISORDERS” (priority 2016, published 2019).
